The first assay deals with Plasmodium falciparum. In words: In vitro inhibition as IC50 against Plasmodium falciparum by [3H]hypoxanthine uptake. It is filed as functional, organism-based.
Details: not given; call rule not given here
A word on the IC50: it is the midpoint of a concentration-inhibition curve. For `CCN(CC)CCCC(C)Nc1ccnc2cc(Cl)ccc12.O=P(O)(O)O.O=P(O)(O)O` (centres undefined) [CHLOROQUINE PHOSPHATE], half-maximal inhibition (IC50) required 0.16 µg/mL.

The same assay, now with this note: Plasmodium falciparum; read-out: IC50.
`Cc1cc2c3c(c1-c1c(C)cc4c(C(C)C)c(O)c(O)c(C=N)c4c1O)OC1=C4C(=O)C(O)C(C(C)C)c5cc(C)c(-c6c(C)cc7c(C(C)C)c(O)c(O)c(C=O)c7c6O)c(c54)OC(=C3C(=O)C(O)C2C(C)C)N1` (centres undefined): the half-inhibitory concentration (IC50) worked out at 6.6 µM.
With `COc1cccc(CN2CCCN(Cc3cccc(OC)c3O)C2c2ccc(N(CCCl)CCCl)cc2C)c1O`, the IC50 was 1.2 µM.
The same measure, in the same setting: next, `COc1cc(C(=O)C(O)c2cc(OC)c(OC)c(OC)c2)cc(OC)c1OC` (centres undefined): 20 µM; `COc1ccc(C2OCC3(O)C(c4ccc(OC)c(OC)c4)OCC23)cc1OC` (centres undefined): 3.2 µM.
The same measure, in the same setting: next, `COc1ccccc1/C=C/C(=O)O` [COUMARINIC ACID METHYL ETHER]: 3 µM; `COc1ccc(/C(=N\O)c2nccc3cc(OC)c(OC)cc23)cc1OC`: 20 µM; `CCN(CC)c1ccc(NCC(O)c2cc(Cl)ccc2OC)cc1` (centres undefined): 4 µM.
On the same count and under the same terms, next, `COc1cc(C(c2c(O)oc3ccccc3c2=O)c2c(O)oc3ccccc3c2=O)cc(OC)c1OC`: above 2 µM; `COc1cccc(C(O)C2=CC(=O)c3ccccc3C2=O)c1OC` (centres undefined): 4.6 µM; `COc1ccc(CC(=O)c2c(O)c3c(c(CC=C(C)C)c2OC)OC(C)(C)CC3)cc1`: 6.2 µM.
For the compound `COc1ccc(C(O)C2c3c(cc4c(c3OC)OCO4)CCN2C)c(CO)c1OC` (centres undefined), the IC50 stood at 8 µM.
Same read-out and setting: next, `O=C1C=CC(=C(c2ccc(O)cc2)c2c(Cl)c(Cl)c(Cl)c(Cl)c2C(=O)O)C=C1`: 20 µM.

The subject of the next assay is Plasmodium falciparum. In words: In vitro inhibition as IC50 against Plasmodium falciparum by [3H]hypoxanthine uptake; Not active.
Details: not given
The class given is functional, organism-based.
Turning to `Cc1ccc(C(C)C)c(OP(=S)(S)Oc2cc(C)ccc2C(C)C)c1`, the IC50 result is “Not Active”.

Values taken from ChEMBL document CHEMBL1135058, “New anti-malarial compounds from database searching” (Bioorg Med Chem Lett, 2002).
